A word on the logD: it is lipophilicity at a set pH, counting ionised and neutral species.

Where a SMILES comes first, the peptide text is derived from it. [ ]: non-standard residue; d: D form. The star is where a group is joined. DOTA = O=C(O)CN1CCN(CC(=O)O)CCN(CC(=O)*)CCN(CC(=O)O)CC1; 1Nal = N[C@@H](Cc1cccc2ccccc12)C(=O)O; NMeNle = CCCC[C@H](NC)C(=O)O

The data set is described as follows: Distribution coefficient (logD) in octanol/PBS. Format: physicochemical. The conditions noted are these: octanol/PBS pH 7.4; read-out: logD. The method, then: The mixture was vigorously vortexed at room temperature over a period of 15 min using a small shaker (MS3 Basic, IKA, Staufen, Germany) with speed of 1500 rpm.

For `CCCC[C@@H](C(=O)N[C@@H](CC(=O)O)C(=O)N[C@@H](Cc1cccc2ccccc12)C(N)=O)N(C)C(=O)[C@H](Cc1c[nH]c2ccccc12)NC(=O)CNC(=O)[C@H](Cc1ccc(O)cc1)NC(=O)[C@@H]1CCCN1C(=O)[C@@H](CCC(=O)O)NC(=O)CN1CCN(CC(=O)O)CCN(CC(=O)O)CCN(CC(=O)O)CC1` [[^177Lu]Lu-1, metal not drawn] ({DOTA}-[dE]PYGW[NMeNle]D[1Nal]-NH2), the logD was -1.96 ± 0.07.

The record behind these values is paper PMC7583830 (Molecules, 2020).
